According to ChEMBL document CHEMBL3217746, “Edaravone containing isoindoline nitroxides for the potential treatment of cardiovascular ischaemia” (Medchemcomm, 2011):
Values belong to the compound of their own block, whether it stands above or below them. Active and inactive are the calls of the source. No cut-off for these calls is given here.

Legend:
H9c2 [1] = assay: Cardioprotective activity in rat H9c2 cells hypoxia-induced ischaemic model assessed as decrease in cell death at 1 to 100 uM by propidium iodide exclusion assay; type: functional, cell-based
H9c2 [2] = assay: Cardioprotective activity in rat H9c2 cells hypoxia-induced ischaemic model assessed as maximal decrease in cell death at 100 uM by propidium iodide exclusion assay; type: functional, cell-based
[3] = Peak plasma concentration in rat at 1.5 mg/kg, iv bolus dose; type: ADME, organism-based; set-up: dose 1.5 mg/kg, route intravenous
Rattus norvegicus = assay: Cardioprotective activity against iv dosed ischaemic brain injury rat model assessed as effective dose after 30 mins; type: functional
H9c2 [4] = assay: Cardioprotective activity in rat H9c2 cells hypoxia-induced ischaemic model assessed as maximal decrease in cell death at 10 uM by propidium iodide exclusion assay; type: functional

Compound: CC1=NN(c2ccc3c(c2)C(C)(C)N([O])C3(C)C)C(=O)C1
inhibition (H9c2 [1]): Active
inhibition (H9c2 [2]): 85.5%

Compound: CON1C(C)(C)c2ccc(N3N=C(C)CC3=O)cc2C1(C)C
inhibition (H9c2 [1]): Active

Cmax [3]: 20 µM
Compound: CC1=NN(c2ccccc2)C(=O)C1 [EDARAVONE]
inhibition (H9c2 [1]): Active
ED (Rattus norvegicus): 3 mg/kg

Compound: OC[C@H]1O[C@@H](n2cnc3c(NC4CCCC4)ncnc32)[C@H](O)[C@@H]1O [N6-CYCLOPENTYLADENOSINE]
inhibition at 10 µM (H9c2 [4]): 75.4%
